Laboratory results from US11827628B2, “Compositions and methods for inhibition of the JAK pathway” (Rigel Pharmaceuticals, Inc., priority 2005, dated 2023).
Read-outs that look alike come from different tables or passages of the source. Values belong to the compound of their own block, whether it stands above or below them.

Legend:
Primary human T-cells = test: Primary Human T-Cell Proliferation Assay Stimulated with IL-2 (CellTiter-Glo); type: cell-based; details: read-out: IC50, Example 42
From the text: The activity of the active compounds of the invention may further be characterized by assaying the effect of the 2,4-substituted pyrimidinediamine compounds described herein on the proliferative response of primary human T-cells. In this assay, primary human T-cells derived from peripheral blood and pre-activated through stimulation of the T-cell receptor and CD28, proliferate in culture in response to the cytokine Interleukin-2 (IL-2). This proliferative response is dependent on the activation of JAK1 and JAK3 tyrosine kinases, which phosphorylate and activate the transcription factor Stat-5. The primary human T-cells are incubated with the 2,4-substituted pyrimidinediamine compounds in the presence of IL-2 for 72 hours and at the assay endpoint intracellular ATP concentrations are measured to assess cell viability. A reduction in cell proliferation compared to control conditions is indicative of inhibition of the JAK kinase pathway. An exemplary assay of this type is described in greater detail in Example 42
Primary human T-cells derived from peripheral blood and pre-activated through stimulation of the T-cell receptor and CD28, proliferate in vitro in response to the cytokine Interleukin-2 (IL-2). This proliferative response is dependent on the activation of JAK-1 and JAK-3 tyrosine kinases, which phosphorylate and activate the transcription factor Stat-5.
Human primary T cells were prepared as follows. Whole blood was obtained from a healthy volunteer, mixed 1:1 with PBS, layered on to Ficoll Hypaque (Amersham Pharmacia Biotech, Piscataway, NJ, Catalog #17-1440-03) in 2:1 blood/PBS:ficoll ratio and centrifuged for 30 min at 4° C. at 1750 rpm. The lymphocytes at the serum: ficoll interface were recovered and washed twice with 5 volumes of PBS. The cells were resuspended in Yssel's medium (Gemini Bio-products, Woodland, CA, Catalog #400-103) containing 40 U/mL recombinant IL2 (R and D Systems, Minneapolis, MN, Catalog #202-IL (20 rig)) and seeded into a flask pre-coated with 1 μg/mL anti-CD3 (BD Pharmingen, San Diego, CA, Catalog #555336) and 5 μg/mL anti-CD28 (Immunotech, Beckman Coulter of Brea CA, Catalog #IM1376). The primary T-cells were stimulated for 3-4 days, then transferred to a fresh flask and maintained in RPMI with 10% FBS and 40 U/mL IL-2.
Primary T-cells were washed twice with PBS to remove the IL-2 and resuspended in Yssel's medium at 2×10^6 cells/mL. 50 μL of cell suspension containing 80 U/mL IL-2 was added to each well of a flat bottom 96 well black plate. For the unstimulated control, IL-2 was omitted from the last column on the plate. Compounds were serially diluted in dimethyl sulfoxide (DMSO, 99.7% pure, cell culture tested, Sigma-Aldrich, St. Louis, MO, Catalog No. D2650) from 5 mM in 3-fold dilutions, and then diluted 1:250 in Yssel's medium. 50 μL of 2× compound was added per well in duplicate and the cells were allowed to proliferate for 72 hours at 37° C.
Proliferation was measured using CellTiter-Glo® Luminescent Cell Viability Assay (Promega), which determines the number of viable cells in culture based on quantitation of the ATP present, as an indicator of metabolically active cells. The substrate was thawed and allowed to come to room temperature. After mixing the Cell Titer-Glo reagent and diluent together, 100 μL was added to each well. The plates were mixed on an orbital shaker for two minutes to induce lysis and incubated at room temperature for an additional ten minutes to allow the signal to equilibrate. Detection was performed using a Wallac Victor2 1420 multilabel counter purchased from Perkin Elmer, Shelton, CT The IC50 calculated based on the results of this assay are provided in TABLE XII.

[1] = tested on: IL-4 stimulated expression of CD23 in human Ramos B cells (JAK-1 and JAK-3); test: Assay for Ramos B-Cell Line Stimulated with IL-4 (CD23 upregulation, FACS); type: cell-based; details: read-out: IC50, Example 41
Procedure, shortened: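 Compound effect on IL-4-driven JAK1/JAK3 signalling is gauged as CD23 surface expression, measured by FACS after 20-24 h of stimulation with IL-4 at 50 units/mL final. A 1 h compound pre-treatment at 37 °C precedes stimulation, and IC50 is derived from the results.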

[2] = Homo sapiens, T-cell, primary human T-cell proliferation stimulated with IL-2
[3] = Homo sapiens, Ramos, Ramos B-cell line stimulated with IL-4, CD23 expression by FACS
[4] = Homo sapiens, T-cell, primary human T-cells stimulated with IL-2, proliferation
[5] = Homo sapiens, Ramos, Ramos B cells stimulated with IL-4, CD23 expression by FACS
[6] = primary human T-cells stimulated with IL-2, proliferation
[7] = Ramos B cells stimulated with IL-4, CD23 expression by FACS
[8] = primary human T-cell proliferation stimulated with IL-2
[9] = Ramos B-cell line stimulated with IL-4, CD23 expression by FACS

Compound: Cc1ccc(Nc2ncc(F)c(Nc3ccc(OCC(=O)N(C)C)cc3)n2)cc1S(N)(=O)=O [Compound I-130, N2-(3-Aminosulfonyl-4-methylphenyl)-N4-(4-dimethylaminocarbonylmethoxyphenyl)-5-fluoro-2,4-pyrimidinediamine]
IC50 (Primary human T-cells; [2]): 1730 nM
IC50 [1, 3]: 601 nM

Compound: CNC(=O)COc1ccc(Nc2nc(Nc3ccc(Cl)c(S(N)(=O)=O)c3)ncc2F)cc1Cl [Compound I-152, N2-(3-Aminosulfonyl-4-chlorophenyl)-N4-(3-chloro-4-methylaminocarbonylmethoxyphenyl)-5-fluoro-2,4-pyrimidinediamine]
IC50 (Primary human T-cells; [2]): 1540 nM
IC50 [1, 3]: 302 nM

Compound: N#CCOc1cccc(Nc2nc(Nc3ccc(S(N)(=O)=O)cc3)ncc2F)c1 [Compound I-3, N2-(4-Aminosulfonyl)phenyl-N4-(3-cyanomethoxy)phenyl-5-fluoro-2,4-pyrimidinediamine]
IC50 (Primary human T-cells; [8]): 987 nM
IC50 [1, 9]: 107 nM

Compound: N2-(3-Aminosulfonyl-4-methoxy-5-methylphenyl)-5-fluoro-N4-(4-trifluoromethylphenyl)-2,4-pyrimidinediamine [VI-34]
IC50 (Primary human T-cells; [6]): 839 nM
IC50 [1, 7]: 157 nM

Compound: CC(C)(C)c1ccc(Nc2nc(Nc3ccc(Cl)c(S(N)(=O)=O)c3)ncc2F)cc1 [VI-43, N2-(3-Aminosulfonyl-4-chlorophenyl)-N4-(4-tert-butylphenyl)-5-fluoro-2,4-pyrimidinediamine]
IC50 (Primary human T-cells; [4]): 6140 nM
IC50 [1, 5]: 739 nM

Compound: CNC(=O)COc1ccc(Nc2nc(Nc3ccc(Cl)c(S(N)(=O)=O)c3)ncc2C)cc1Cl [Compound I-153, N2-(3-Aminosulfonyl-4-chlorophenyl)-N4-(3-chloro-4-methylaminocarbonylmethoxyphenyl)-5-methyl-2,4-pyrimidinediamine]
IC50 (Primary human T-cells; [2]): 334 nM
IC50 [1, 3]: 114 nM

Compound: NS(=O)(=O)c1ccc(Nc2ncc(F)c(Nc3ccc(-c4ccccn4)c(OCF)c3)n2)cc1 [Compound I-177, N2-(4-Aminosulfonylphenyl)-5-fluoro-N4-[4-(2-pyridinyl)-3-fluoromethyleneoxyphenyl]-2,4-pyrimidinediamine]
IC50 (Primary human T-cells; [8]): 500 nM

Compound: C#CCNS(=O)(=O)c1ccc(Nc2nc(Nc3ccc(S(N)(=O)=O)cc3)ncc2F)cc1 [VI-77, N2-(4-Aminosulfonylphenyl)-5-fluoro-N4-[4-(prop-2-ynylaminosulfonyl)phenyl]-2,4-pyrimidinediamine]
IC50 (Primary human T-cells; [4]): 43300 nM

Compound: N2-(3-aminosulfonyl-4-methyl)phenyl-5-fluoro-N4-(4-thiomethylcarbonyl)phenyl-2,4-pyrimidinediamine [VI-95]
IC50 [1, 7]: 1000 nM

Compound: CN(C)c1ccc2cc(Nc3nc(Nc4cccc(S(N)(=O)=O)c4)ncc3F)ccc2n1 [VII-76, N2-(3-Aminosulfonylphenyl)-N4-(2-N,N′-dimethylamine-quinolin-6-yl)-5-fluoro-2,4-pyrimidinediamine]
IC50 [1, 7]: 673 nM

Compound: CCCN(c1ccc(OC)c(Cl)c1)c1nc(Nc2cc(C)c(F)c(S(N)(=O)=O)c2)ncc1F [VI-23, N2-(3-Aminosulfonyl-4-fluoro-5-methylphenyl)-N4-(3-chloro-4-methoxyphenyl)-5-fluoro-N4-propyl-2,4-pyrimidinediamine]
IC50 [1, 5]: 597 nM

Compound: NS(=O)(=O)c1cccc(Nc2ncc(F)c(Nc3ccc(O)cc3)n2)c1 [VI-101, N2-(3-Aminosulfonylphenyl)-5-fluoro-N4-(4-hydroxyphenyl)-2,4-pyrimidinediamine]
IC50 [1, 5]: 919 nM

Compound: COc1cc(Nc2nc(Nc3cccc(S(N)(=O)=O)c3)ncc2F)ccc1OCC(N)=O [Compound I-104, N4-(4-Aminocarbonylmethoxy-3-methoxyphenyl)-N2-(3-aminosulfonylphenyl)-5-fluoro-2,4-pyrimidinediamine]
IC50 [1, 3]: 1430 nM

Second part, led by results:

IC50 [1, 5]: 77.5 nM
Compound: COc1c(C)cc(Nc2ncc(F)c(N[C@H]3[C@@H](C(N)=O)[C@@H]4C=C[C@H]3C4)n2)cc1S(N)(=O)=O [VII-83, (1R,2R,3S,4S)N2-(3-Aminosulfonyl-4-methoxy-5-methylphenyl)-N4-(3-aminocarbonylbicyclo[2.2.1]hept-5-ene-2-yl)-5-fluoro-2,4-pyrimidinediamine]
IC50 (Primary human T-cells; [4]): 937 nM

IC50 [1, 3]: 293 nM
Compound: C=CC(=O)NCc1ccc(Nc2nc(Nc3cccc(S(N)(=O)=O)c3)ncc2F)cc1 [III-45, N4-(4-Acrylamidomethylphenyl)-N2-(3-aminosulfonylphenyl)-5-fluoro-2,4-pyrimidinediamine]
IC50 (Primary human T-cells; [2]): 384 nM

IC50 [1, 7]: 1030 nM
Compound: NS(=O)(=O)c1ccc(Nc2ncc(F)c(Nc3ccc(Cn4cncn4)cc3)n2)cc1 [III-99, N2-(4-Aminosulfonylphenyl)-5-fluoro-N4-{4-[1-(1,2,4-thazolyl)methyl]phenyl}-2,4-pyrimidinediamine]
IC50 (Primary human T-cells; [6]): 2170 nM

IC50 [1, 7]: 14100 nM
Compound: Cc1ccc(Nc2ncc(F)c(NC3CN(Cc4ccccc4)CCC3C)n2)cc1S(N)(=O)=O (racemic) [VII-3, Racemic N2-(3-aminosulfonyl-4-methylphenyl)-N4-(1-benzyl-4-methylpiperidin-3-yl)-5-fluoro-2,4-pyrimidinediamine]
IC50 (Primary human T-cells; [6]): 16500 nM

IC50 [1, 5]: 502 nM
Compound: COc1ccc(Nc2nc(Nc3cccc(S(N)(=O)=O)c3)ncc2F)nc1N [VII-7, N2-(3-Aminosulfonylphenyl)-N4-(2-amino-3-methoxypyrid-6-yl)-5-fluoro-2,4-pyrimidinediamine]
IC50 (Primary human T-cells; [4]): 3920 nM

IC50 [1, 7]: 198 nM
Compound: CCCN(Cc1ccc(Nc2nc(Nc3ccc(C)c(S(N)(=O)=O)c3)ncc2F)cc1)C(N)=O [III-127, N2-(3-aminosulfonyl-4-methyl)phenyl-N4-[4-(N-carbamoyl-N-propyl)aminomethyl]phenyl-5-fluoro-2,4-pyrimidinediamine]
IC50 (Primary human T-cells; [6]): 612 nM

IC50 [1, 7]: 173 nM
Compound: CCNC(=O)NCCc1ccc(Nc2nc(Nc3cccc(S(N)(=O)=O)c3)ncc2F)cc1 [III-123, N2-(3-aminosulfonyl)phenyl-N4-[4-(2-ethylaminocarbonylamino)ethyl]phenyl-5-fluoro-2,4-pyrimidinediamine]
IC50 (Primary human T-cells; [6]): 1390 nM

IC50 [1, 9]: 1010 nM
Compound: CCn1nccc1NC(=O)Cc1ccc(Nc2nc(Nc3cccc(S(N)(=O)=O)c3)ncc2F)cc1 [III-51, N2-(3-Aminosulfonylphenyl)-N4-[(1-ethylpyrazolyl-5-aminocarbonylmethylene)phenyl]-5-fluoro-2,4-pyrimidinediamine]

IC50 [1, 9]: 4980 nM
Compound: CN1CCN(S(=O)(=O)c2cccc(Nc3ncc(F)c(Nc4ccc(CC#N)cc4)n3)c2)CC1 [III-5, N4-(4-Cyanomethyl)phenyl-5-fluoro-N2-[3-(4-methylpiperazin-1-yl)sulfonyl]phenyl-2,4-pyrimidinediamine]

IC50 [1, 9]: 3230 nM
Compound: CCC(=O)NS(=O)(=O)c1cccc(Nc2ncc(F)c(Nc3ccc(Cc4ccncc4)cc3)n2)c1 [III-68]

IC50 [1, 7]: 47100 nM
Compound: CC1(C)Oc2cc(Nc3nc(Nc4ccc(S(N)(=O)=O)cc4)ncc3F)cnc2NC1=O [VII-52, N2-(4-Aminosulfonylphenyl)-N4-[2,2-dimethyl-3-oxo-4H-5-pyrid[1,4]oxazin-7-yl]-5-fluoro-2,4-pyrimidinediamine]
